Columns and labels:
[1] = target: phosphorylated EGFR (pEGFR) (Homo sapiens (Human), UniProt P00533); assay: Detection of phosphorylated EGFR (pEGFR) by AlphaLISA in A431 cells; type: cell-based; details: A431 cells (10% FBS), 4 hours incubation, EGF 30 ng/mL for 10 minutes
Description: […] were performed to measure phosphorylated EGFR levels using A431 cells (10% FBS). A431 (1.0*10^4cells/40 μl/well) cells were seeded in 384 well. Compounds were dissolved in DMSO, serially diluted in DMSO and then were added, mixed, and incubated for 4 hours at 37° C., […]. Following the 4-hours incubation, cells were stimulated for 10 minutes with EGF (Invitrogen, cat #PHG0311) at a final concentration of 30 ng/mL in the incubator. The media was aspirated and cells were lysed in 10 μL lysis buffer with protease and phosphatase inhibitors (PerkinElmer, cat #ALSU-PEGFR-A50K). The plates were placed on a shaker for 5 minutes and then incubated for 30 min at 4° C. for complete lysis. The lysate was transferred to an Optiplate (Perkin Elmer, cat #6007290).
Acceptor mix (PerkinElmer, cat #ALSU-PEGFR-A50K) was prepared just before use and 5 μL was dispensed to all the wells, followed by a 1.5-2 h incubation at room temperature in dark. The donor mix (PerkinElmer, cat #ALSU-PEGFR-A50K) was prepared under low light conditions prior to use and 5 μl of donor mix was added to all the wells under subdued lighting or green filters. The plates were placed on a shaker for 5 min, sealed, and incubated overnight at room temperature in dark. Plates were read on the Envision (PerkinElmer) using standard AlphaLISA settings.
The percentage of inhibition on EGFR phosphorylation was calculated following equation: % Inhibition=100×(LumHC−LumSample)/(LumHC−LumLC). The low and high controls (LC/HC) are generated from lysate from wells with cells treated with DMSO or […] Staurosporine (BioAustralis, cat #BIA-S1086), […]. IC50 values were calculated by fitting the Curve using XLfit (v5.3.1.3), equation 201: Y=Bottom+(Top−Bottom)/(1+10^((LogIC50−X)*HillSlope)).

[2] = target: phosphorylated ERBB2 (pERBB2) (Homo sapiens (Human), UniProt P04626); assay: Detection of phosphorylated ERBB2 (pERBB2) by ELISA in BT-474 cells; type: cell-based; details: four hours incubation with compound
Sequence of phosphorylated ERBB2 (pERBB2) (P04626 23-1255): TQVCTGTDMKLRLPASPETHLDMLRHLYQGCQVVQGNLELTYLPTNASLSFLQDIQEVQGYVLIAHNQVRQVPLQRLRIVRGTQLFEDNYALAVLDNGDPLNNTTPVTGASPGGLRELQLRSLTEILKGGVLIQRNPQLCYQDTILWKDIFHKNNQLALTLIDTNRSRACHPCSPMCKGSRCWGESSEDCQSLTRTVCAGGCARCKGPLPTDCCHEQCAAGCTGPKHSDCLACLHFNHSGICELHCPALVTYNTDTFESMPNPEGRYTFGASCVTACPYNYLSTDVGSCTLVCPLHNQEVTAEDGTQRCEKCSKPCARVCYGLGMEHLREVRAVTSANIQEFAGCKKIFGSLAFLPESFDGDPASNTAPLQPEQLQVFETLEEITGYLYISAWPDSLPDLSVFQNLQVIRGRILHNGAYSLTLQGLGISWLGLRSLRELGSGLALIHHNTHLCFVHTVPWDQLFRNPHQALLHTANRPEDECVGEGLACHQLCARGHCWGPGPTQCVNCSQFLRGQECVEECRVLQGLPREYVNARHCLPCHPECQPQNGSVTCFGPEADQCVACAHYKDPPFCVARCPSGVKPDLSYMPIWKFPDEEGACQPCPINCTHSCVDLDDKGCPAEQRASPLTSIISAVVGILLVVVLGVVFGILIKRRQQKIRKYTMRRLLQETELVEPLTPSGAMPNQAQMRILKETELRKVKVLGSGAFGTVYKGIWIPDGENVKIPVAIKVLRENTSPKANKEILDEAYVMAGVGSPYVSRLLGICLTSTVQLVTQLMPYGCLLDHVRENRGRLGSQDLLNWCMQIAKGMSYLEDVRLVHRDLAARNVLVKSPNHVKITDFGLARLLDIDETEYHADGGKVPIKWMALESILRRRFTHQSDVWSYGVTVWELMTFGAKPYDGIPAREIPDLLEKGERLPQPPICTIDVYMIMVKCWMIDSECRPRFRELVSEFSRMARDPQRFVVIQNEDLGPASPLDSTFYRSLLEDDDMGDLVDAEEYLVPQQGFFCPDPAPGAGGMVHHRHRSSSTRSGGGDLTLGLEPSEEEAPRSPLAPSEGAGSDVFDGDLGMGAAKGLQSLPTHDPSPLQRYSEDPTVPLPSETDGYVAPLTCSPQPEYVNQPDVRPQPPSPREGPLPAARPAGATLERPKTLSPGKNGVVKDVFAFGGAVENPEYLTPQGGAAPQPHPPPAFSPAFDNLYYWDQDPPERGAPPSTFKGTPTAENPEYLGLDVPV
Description: BT-474 cells were seeded into a 96-well at 2.0*10^4cells/100 μl/well. Compounds were dissolved and serially diluted in DMSO. The compounds were then were added, mixed, and incubated for four hours at 37° C., 5% CO2. […] Following the four hour incubation with compounds, cell lysates were prepared. Plates were centrifuged for 5 min at 3000 RPM, and supernatant was removed from each well. Cells were washed 3 times by resuspension in 150 μl PBS, followed by centrifugation and removal of the supernatant, as above. 100 μl of cell lysis buffer (Boston BioProducts, cat #BP-115D) supplied with 1×complete ULTRA cocktail inhibitor (Thermo ScientificTM, cat #78443) was then added to the washed cells. Cells were incubated with lysis buffer for 1 hour at 4° C., and then stored at -80° C. Enzyme-linked immunosorbent assays (ELISA) were performed to measure phosphorylated ERBB2 levels. […] The next day, plates were washed with PBS+0.05% Tween20 (PBST). 150 μl of 5% BSA blocking solution was added for 1 hour at room temperature, with shaking. Plates were washed with PBST. Cell lysates were thawed and 100 μl of lysate was added to the ELISA plate. The plates were incubated for 2 hours at room temperature, with shaking. ELISA plates were then washed with PBST and 100 μl of an HRP-labeled detection antibody that binds phosphorylated tyrosine (R&D Systems, cat #841913) was added to each well. Plates were incubated for 1 hour at room temperature, with shaking. Plates were then washed with PBST, and 100 μl TMB substrate solution (R&D Systems, cat #DY999) was added. Plate were incubated in the dark for 20 minutes at room temperature. 50 μl of Stop solution (R&D Systems, cat #DY994) (50 μl) was added to each well and mixed. […] The remaining kinase activity by calculated using the following formula: % Relative activity=100×([…]). The low and high control values (“LC” and “HC”) were generated from lysate from wells without cells or with cells treated with 0.1% DMSO, respectively.

Sequence of phosphorylated EGFR (pEGFR) (P00533 25-1210): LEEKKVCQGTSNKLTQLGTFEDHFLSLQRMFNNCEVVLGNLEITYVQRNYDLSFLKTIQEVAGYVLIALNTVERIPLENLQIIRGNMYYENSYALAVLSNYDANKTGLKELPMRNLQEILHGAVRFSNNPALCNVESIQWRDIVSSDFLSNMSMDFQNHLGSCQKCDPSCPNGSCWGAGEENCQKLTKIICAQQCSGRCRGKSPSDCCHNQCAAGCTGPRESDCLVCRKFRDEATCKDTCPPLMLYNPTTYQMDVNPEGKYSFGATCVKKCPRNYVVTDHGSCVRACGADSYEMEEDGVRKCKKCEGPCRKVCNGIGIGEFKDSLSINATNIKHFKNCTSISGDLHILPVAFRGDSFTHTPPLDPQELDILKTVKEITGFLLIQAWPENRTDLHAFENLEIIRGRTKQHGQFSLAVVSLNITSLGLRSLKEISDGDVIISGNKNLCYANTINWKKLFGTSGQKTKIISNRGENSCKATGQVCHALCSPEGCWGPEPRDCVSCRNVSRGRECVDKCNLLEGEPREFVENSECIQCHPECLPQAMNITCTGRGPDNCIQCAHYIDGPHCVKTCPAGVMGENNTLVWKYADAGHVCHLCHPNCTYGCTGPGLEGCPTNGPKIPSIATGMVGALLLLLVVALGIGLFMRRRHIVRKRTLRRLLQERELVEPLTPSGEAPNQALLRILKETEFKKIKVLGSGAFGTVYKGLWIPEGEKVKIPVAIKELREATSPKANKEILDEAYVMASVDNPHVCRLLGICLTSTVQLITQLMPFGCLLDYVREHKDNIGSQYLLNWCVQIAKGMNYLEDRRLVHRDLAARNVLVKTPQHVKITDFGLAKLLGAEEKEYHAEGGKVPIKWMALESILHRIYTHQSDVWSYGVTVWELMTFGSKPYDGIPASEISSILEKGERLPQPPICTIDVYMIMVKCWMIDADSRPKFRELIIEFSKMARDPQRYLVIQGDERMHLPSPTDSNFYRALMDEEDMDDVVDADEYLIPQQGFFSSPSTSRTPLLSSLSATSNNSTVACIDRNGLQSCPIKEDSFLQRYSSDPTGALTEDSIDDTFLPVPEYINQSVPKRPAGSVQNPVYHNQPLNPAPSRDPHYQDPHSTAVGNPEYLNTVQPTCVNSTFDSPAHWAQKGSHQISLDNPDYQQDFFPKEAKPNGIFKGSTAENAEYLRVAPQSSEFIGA

Row | IC50 [1] [nM] | IC50 [2] [nM] | SMILES
1 | 338 | 5.54 | Cc1cc(Nc2ncnc3cc4c(nc23)N2CCN(C(=O)/C=C/CN(C)C)C(CO4)C2)ccc1Oc1cccnc1 (stereo in doubt) [Compound 25, (E)-4-(dimethylamino)-1-((10S)-4-((3-methyl-4-(pyridin-3-yloxy)phenyl)amino)-7,8,10,11-tetrahydro-9H-6,10-methanopyrimido[4′,5′:5,6]pyrido[3,2-b][1,4,7]oxadiazonin-9-yl)but-2-en-1-one]
2 | 4430 | 62.8 | CC#CC(=O)N1CCN2CC1COc1cc3ncnc(Nc4ccc(Oc5ccn6ncnc6c5)c(C)c4)c3nc12 (stereo in doubt) [Compound 18, 1-((10S)-4-((4-([1,2,4]triazolo[1,5-a]pyridin-7-yloxy)-3-methylphenyl)amino)-7,8,10,11-tetrahydro-9H-6,10-methanopyrimido[4′,5′:5,6]pyrido[3,2-b][1,4,7]oxadiazonin-9-yl)but-2-yn-1-one]
3 | > 10000 | 27.3 | Cc1cc(Nc2ncnc3cc4c(nc23)N2CCN(C(=O)/C=C/C3CN(C)C3)C(CO4)C2)ccc1Oc1ccn2ncnc2c1 (stereo in doubt) [Compound 45, (E)-1-((10S)-4-((4-([1,2,4]triazolo[1,5-a]pyridin-7-yloxy)-3-methylphenyl)amino)-7,8,10,11-tetrahydro-9H-6,10-methanopyrimido[4′,5′:5,6]pyrido[3,2-b][1,4,7]oxadiazonin-9-yl)-3-(1-methylazetidin-3-yl)prop-2-en-1-one]
4 | > 10000 | 29.2 | Cc1cc(Nc2ncnc3cc4c(nc23)N2CCN(C(=O)/C=C/[C@H](C)N(C)C)C(CO4)C2)c(F)cc1Oc1ccn2ncnc2c1 (stereo in doubt) [Compound 47, (4S,E)-1-((10S)-4-((4-([1,2,4]triazolo[1,5-a]pyridin-7-yloxy)-2-fluoro-5-methylphenyl)amino)-7,8,10,11-tetrahydro-9H-6,10-methanopyrimido[4′,5′:5,6]pyrido[3,2-b][1,4,7]oxadiazonin-9-yl)-4-(dimethylamino)pent-2-en-1-one]
5 | 177 | 8.84 | Cc1cc(Nc2ncnc3cc4c(nc23)N2CCN(C(=O)/C=C/CN(C)C)C(CO4)C2)ccc1Oc1cncc(F)c1 (stereo in doubt) [Compound 51, (E)-4-(dimethylamino)-1-((10S)-4-((4-((5-fluoropyridin-3-yl)oxy)-3-methylphenyl)amino)-7,8,10,11-tetrahydro-9H-6,10-methanopyrimido[4′,5′:5,6]pyrido[3,2-b][1,4,7]oxadiazonin-9-yl)but-2-en-1-one]
6 | > 10000 | 16.8 | Cc1cc(Nc2ncnc3cc4c(nc23)N2CCN(C(=O)/C=C/[C@@H](C)N(C)C)C(CO4)C2)ccc1Oc1ccn2ncnc2c1 (stereo in doubt) [Compound 29, (4R,E)-1-((10S)-4-((4-([1,2,4]triazolo[1,5-a]pyridin-7-yloxy)-3-methylphenyl)amino)-7,8,10,11-tetrahydro-9H-6,10-methanopyrimido[4′,5′:5,6]pyrido[3,2-b][1,4,7]oxadiazonin-9-yl)-4-(dimethylamino)pent-2-en-1-one]
7 | > 10000 | 41.3 | Cc1cc(Nc2ncnc3cc4c(cc23)N2CCN(C(=O)/C=C/CN(C)C)C(CO4)C2)ccc1Oc1ccc2c(c1)ncn2C (stereo in doubt) [Compound 7, (E)-4-(dimethylamino)-1-((10S)-4-((3-methyl-4-((1-methyl-1H-benzo[d]imidazol-5-yl)oxy)phenyl)amino)-7,8,10,11-tetrahydro-9H-6,10-methano[1,4,7]oxadiazonino[3,2-g]quinazolin-9-yl)but-2-en-1-one]
8 | 8770 | 10.8 | Cc1cc(Nc2ncnc3cc4c(nc23)N2CCN(C(=O)/C=C/[C@@H]3CCCN3C)C(CO4)C2)ccc1Oc1ccn2ncnc2c1 (stereo in doubt) [Compound 28, (E)-1-((10S)-4-((4-([1,2,4]triazolo[1,5-a]pyridin-7-yloxy)-3-methylphenyl)amino)-7,8,10,11-tetrahydro-9H-6,10-methanopyrimido[4′,5′:5,6]pyrido[3,2-b][1,4,7]oxadiazonin-9-yl)-3-((S)-1-methylpyrrolidin-2-yl)prop-2-en-1-one]
9 | 3390 | 51.1 | Cc1cc(Nc2ncnc3cc4c(nc23)N2CCN(C(=O)/C=C/C3(F)CN(C)C3)C(CO4)C2)ccc1Oc1ccn2ncnc2c1 (stereo in doubt) [Compound 53, (E)-1-((10S)-4-((4-([1,2,4]triazolo[1,5-a]pyridin-7-yloxy)-3-methylphenyl)amino)-7,8,10,11-tetrahydro-9H-6,10-methanopyrimido[4′,5′:5,6]pyrido[3,2-b][1,4,7]oxadiazonin-9-yl)-3-(3-fluoro-1-methylazetidin-3-yl)prop-2-en-1-one]
10 | > 10000 | 103 | CC#CC(=O)N1CCN2CC1COc1cc3ncnc(Nc4ccc(Oc5ccc6c(c5)ncn6C)c(C)c4)c3cc12 (stereo in doubt) [Compound 11, 1-((10S)-4-((3-methyl-4-((1-methyl-1H-benzo[d]imidazol-5-yl)oxy)phenyl)amino)-7,8,10,11-tetrahydro-9H-6,10-methano[1,4,7]oxadiazonino[3,2-g]quinazolin-9-yl)but-2-yn-1-one]
11 | 6170 | 8.92 | CN(C)C/C=C/C(=O)N1CCN2CC1COc1cc3ncnc(Nc4ccc(Oc5ccn6ncnc6c5)c(F)c4)c3nc12 (stereo in doubt) [Compound 39, (E)-1-((10S)-4-((4-([1,2,4]triazolo[1,5-a]pyridin-7-yloxy)-3-fluorophenyl)amino)-7,8,10,11-tetrahydro-9H-6,10-methanopyrimido[4′,5′:5,6]pyrido[3,2-b][1,4,7]oxadiazonin-9-yl)-4-(dimethylamino)but-2-en-1-one]
12 | > 10000 | 72.4 | Cc1cc(Nc2ncnc3cc4c(nc23)N2CCN(C(=O)/C=C/[C@@H](C)N(C)C)C(CO4)C2)c(F)cc1Oc1ccn2ncnc2c1 (stereo in doubt) [Compound 50, (4R,E)-1-((10S)-4-((4-([1,2,4]triazolo[1,5-a]pyridin-7-yloxy)-2-fluoro-5-methylphenyl)amino)-7,8,10,11-tetrahydro-9H-6,10-methanopyrimido[4′,5′:5,6]pyrido[3,2-b][1,4,7]oxadiazonin-9-yl)-4-(dimethylamino)pent-2-en-1-one]

Row | SMILES | IC50 [1] [nM] | IC50 [2] [nM]
13 | [2H]C([2H])([2H])N(C([2H])([2H])[2H])C([2H])([2H])/C=C/C(=O)N1CCN2CC1COc1cc3ncnc(Nc4cc(C)c(Oc5ccn6ncnc6c5)cc4F)c3nc12 (stereo in doubt) [Compound 59, (E)-1-((10S)-4-((4-([1,2,4]triazolo[1,5-a]pyridin-7-yloxy)-2-fluoro-5-methylphenyl)amino)-7,8,10,11-tetrahydro-9H-6,10-methanopyrimido[4′,5′:5,6]pyrido[3,2-b][1,4,7]oxadiazonin-9-yl)-4-(bis(methyl-d3)amino)but-2-en-1-one-4,4-d2] | 1380 | 9
14 | Cc1cc(Nc2ncnc3cc4c(nc23)N2CCN(C(=O)/C=C/CN(C)C)C(CO4)C2)c(F)cc1Oc1ccn2ncnc2c1 (stereo in doubt) [Compound 24, (E)-1-((10S)-4-((4-([1,2,4]triazolo[1,5-a]pyridin-7-yloxy)-2-fluoro-5-methylphenyl)amino)-7,8,10,11-tetrahydro-9H-6,10-methanopyrimido[4′,5′:5,6]pyrido[3,2-b][1,4,7]oxadiazonin-9-yl)-4-(dimethylamino)but-2-en-1-one] | 2160 | 8.38
